Where a SMILES comes first, the peptide text is derived from it.
Key:
[1] = test system: perennial ryegrass (Lolium perenne) seeds; assay: Petri dish root-inhibition bioassay on perennial ryegrass seeds; format: in vivo; details: for Root Length of Perennial Ryegrass Seedlings Expressed as a Percentage of the Control: average of 2 trials; for relative effectiveness among the five dipeptides: perennial ryegrass root inhibition
Protocol: Bioactive fractions of the eluate were identified with bioassays, then pooled and subjected to further purification steps. […] The dishes were sealed with parafilm and placed in a controlled environmental chamber. The light intensity in the growth chamber was 70 μmol m^-2 s^-1 at 25° C./15° C. day/night temperature with a 16 hr photoperiod. One ml of a given eluate fraction was applied to the filter paper in each petri dish. The study was conducted with seven replications for each eluate fraction. […] Louis, Mo. The fifth, Gln-Gln, was obtained from Bachem Bioscience Inc. The activity of each synthetically derived peptide was tested in seven replications on perennial ryegrass using the same bioassay technique described in Example 4 in the presence of increasing amounts of the dipeptides mixed with distilled water (Table V).

[2] = test system: creeping bentgrass (Agrostis palustris); assay: Soil pot study of dipeptide bioactivity on creeping bentgrass; format: in vivo; details: for Mean root length of creeping bentgrass seedlings / Percentage of creeping bentgrass plants surviving: 21 days after treatment
Protocol: In a study designed to verify the bioactivity of the dipeptides on soil, Ala-Gln and Gly-Ala were applied to the surface of 56.3 cm^2 plastic pots filled with a Nicollet (fine, loamy, […], Aquic Hapludol soil. The two dipeptides were applied at 0 to 3552 mg/dm^2. […] The test specie was creeping bentgrass (Agrostis palustris).

[3] = 8 μg/cm^2 dipeptide on filter paper
[4] = 13 μg/cm^2 dipeptide on filter paper
[5] = 21 μg/cm^2 dipeptide on filter paper
[6] = 26 μg/cm^2 dipeptide on filter paper
[7] = 31 μg/cm^2 dipeptide on filter paper
[8] = 39 μg/cm^2 dipeptide on filter paper
[9] = 52 μg/cm^2 dipeptide on filter paper
[10] = concentrations of 1.8 g/dm^2 and above
[11] = much lower concentrations than 1.8 g/dm^2

Structure (SMILES) | Root Length of Perennial Ryegrass Seedlings Expressed as a Percentage of the Control [1, 3] [%] | Root Length of Perennial Ryegrass Seedlings Expressed as a Percentage of the Control [1, 4] [%] | Root Length of Perennial Ryegrass Seedlings Expressed as a Percentage of the Control [1, 5] [%] | Root Length of Perennial Ryegrass Seedlings Expressed as a Percentage of the Control [1, 6] [%] | Root Length of Perennial Ryegrass Seedlings Expressed as a Percentage of the Control [1, 7] [%] | Root Length of Perennial Ryegrass Seedlings Expressed as a Percentage of the Control [1, 8] [%] | Root Length of Perennial Ryegrass Seedlings Expressed as a Percentage of the Control [1, 9] [%] | relative effectiveness among the five dipeptides [1] | Mean root length of creeping bentgrass seedlings ([2]; 89 mg/dm^2 on soil surface) [mm] | Percentage of creeping bentgrass plants surviving ([2]; 89 mg/dm^2 on soil surface) [%] | Mean root length of creeping bentgrass seedlings ([2]; 178 mg/dm^2 on soil surface) [mm] | Percentage of creeping bentgrass plants surviving ([2]; 178 mg/dm^2 on soil surface) [%] | Mean root length of creeping bentgrass seedlings ([2]; 355 mg/dm^2 on soil surface) [mm] | Percentage of creeping bentgrass plants surviving ([2]; 355 mg/dm^2 on soil surface) [%] | Mean root length of creeping bentgrass seedlings ([2]; 710 mg/dm^2 on soil surface) [mm] | Percentage of creeping bentgrass plants surviving ([2]; 710 mg/dm^2 on soil surface) [%] | Mean root length of creeping bentgrass seedlings ([2]; 1066 mg/dm^2 on soil surface) [mm] | Percentage of creeping bentgrass plants surviving ([2]; 1066 mg/dm^2 on soil surface) [%] | Mean root length of creeping bentgrass seedlings ([2]; 1776 mg/dm^2 on soil surface) [mm] | Percentage of creeping bentgrass plants surviving ([2]; 1776 mg/dm^2 on soil surface) [%] | also measured
C[C@H](N)C(=O)N[C@@H](C)C(=O)O [Ala-Ala, alaninyl-alanine] (H-Ala-Ala-OH) | 74 | 44 | 27 | 5 | 1 | 2 | 0 | most effective | – | – | – | – | – | – | – | – | – | – | – | – | –
C[C@H](N)C(=O)N[C@@H](CC(N)=O)C(=O)O [Ala-Asn, alaninylasparagine] (H-Ala-Asn-OH) | 101 | 85 | 63 | 29 | 2 | 0 | 0 | most effective | – | – | – | – | – | – | – | – | – | – | – | – | –
C[C@H](N)C(=O)N[C@@H](CCC(N)=O)C(=O)O [Ala-Gln, alaninyl-glutamine] (H-Ala-Gln-OH) | 83 | 70 | 49 | 41 | 4 | 0 | 0 | – | 20 | 100 | 15 | 40 | 2 | 30 | 0 | 25 | 0 | 5 | 0 | 0 | Mean root length of creeping bentgrass seedlings ([2]; 3552 mg/dm^2 on soil surface): 0 mm; Percentage of creeping bentgrass plants surviving ([2]; 3552 mg/dm^2 on soil surface): 0%; inhibition of emergence and establishment of creeping bentgrass [2, 10]: completely inhibit; inhibition of emergence and establishment of creeping bentgrass [2, 11]: partially effective
NC(=O)CC[C@H](NC(=O)[C@@H](N)CCC(N)=O)C(=O)O [Gln-Gln, glutaminyl-glutamine] (H-Gln-Gln-OH) | 107 | 89 | 82 | 63 | 12 | 3 | 0 | – | – | – | – | – | – | – | – | – | – | – | – | – | –
C[C@H](NC(=O)CN)C(=O)O [Gly-Ala, glycinyl-alanine] (H-Gly-Ala-OH) | 95 | 68 | 29 | 16 | 9 | 2 | 0 | – | 20 | 105 | 15 | 40 | 5 | 30 | 2 | 25 | 2 | 25 | 0 | 0 | Mean root length of creeping bentgrass seedlings ([2]; 3552 mg/dm^2 on soil surface): 0 mm; Percentage of creeping bentgrass plants surviving ([2]; 3552 mg/dm^2 on soil surface): 0%; inhibition of emergence and establishment of creeping bentgrass [2, 10]: completely inhibit; inhibition of emergence and establishment of creeping bentgrass [2, 11]: partially effective

— patent publication US5290757A (priority 1993, dated 1994)
